# Laboratory results: patent US20210235704A9, “Combinations of Lipo-Chitooligosaccharides and Methods for Use in Enhancing Plant Growth” (NOVOZYMES BIOAG A/S, priority 2011, published 2021)
# System: Florida petite cherry tomato plants
# Assay: LCO foliar application on cherry tomato (greenhouse)
# Format: in vivo
# Conditions: at the end of harvest, compared to control treatment; FIG. 11
# Experimental: Based on the findings from the soybean LCO and the alfalfa LCO combination in Siratro (example 1), further investigation was conducted on tomato. Florida petite cherry tomato plants were grown from seeds in greenhouse plastic containers and sprayed with soy LCO or its combination with alfalfa LCO during the initiation of flower buds at 5 ml/plant application rate. A second spry was also applied one week after the first application. At different maturity, leaf greenness, flower number, fruit number and final fruit fresh weight were measured.
substance,measurement,value
"LCO-V(C18:1, MeFuc), MOR116 [soy LCO]",average fruit number per plant,significantly higher
